This is an account of results in article PMC3129627 (Organic letters, 2011).

The target in assay [1] is acetyl cholinesterase (AChE) from the brown plant hopper. As to conditions: natural product; cited from earlier work.
Another assay concerns the target human AChE (Homo sapiens, UniProt P22303). As to the kind of experiment: Inhibition of human AChE, modified Ellman assay. It counts as biochemical. The settings on record: racemic (±) synthetic compounds.
Assay [2] addresses acetyl cholinesterase (AChE) from the housefly (CSMA strain). As to conditions: natural product; cited from earlier work.

Sequence of human AChE (P22303 32-614): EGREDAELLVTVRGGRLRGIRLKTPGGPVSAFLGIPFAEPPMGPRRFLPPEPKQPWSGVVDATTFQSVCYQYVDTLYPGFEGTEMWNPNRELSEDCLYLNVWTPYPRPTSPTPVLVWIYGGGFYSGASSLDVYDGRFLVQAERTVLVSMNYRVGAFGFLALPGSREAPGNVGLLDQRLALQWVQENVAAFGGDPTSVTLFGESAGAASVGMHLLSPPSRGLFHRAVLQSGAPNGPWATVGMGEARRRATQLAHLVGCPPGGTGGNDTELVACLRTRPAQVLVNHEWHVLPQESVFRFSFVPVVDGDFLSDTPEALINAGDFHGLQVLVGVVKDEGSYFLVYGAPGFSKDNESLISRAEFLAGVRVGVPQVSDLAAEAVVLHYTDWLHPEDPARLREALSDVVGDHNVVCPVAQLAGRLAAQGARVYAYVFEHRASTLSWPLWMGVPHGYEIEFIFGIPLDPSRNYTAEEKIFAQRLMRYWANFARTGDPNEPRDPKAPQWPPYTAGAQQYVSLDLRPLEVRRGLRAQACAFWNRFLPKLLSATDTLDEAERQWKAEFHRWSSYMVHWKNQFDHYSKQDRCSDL

For `CO[P@]1(=O)OC[C@H]2COC(=O)C2=C(C)O1` [compound 1, Cyclophostin], the IC50 is 760 pM in assay [1], about 40000 pM on human AChE and 760 pM in assay [2].
